Legend:
[1] = tested on: MDA-MB-231 lysate; assay: Gel-based in vitro JW-RF-001 competition of labeling with Example 4; assay type: binding; details: 30 μM Example 4, MDA-MB-231 lysate, one hour at r.t.
Method: MDA-MB-231 lysate (2 mg/mL, 25 μL) was treated with indicated concentrations of azide probes (Example 4) (1 μL of 25× stock in DMSO) for one hour at r.t. Click chemistry was initiated by the addition of TAMRA alkyne (Sigma-Aldrich, 30 μM, 25× stock in DMSO), tris(2-carboxyethyl)phosphine hydrochloride (TCEP, Alfa Aesar, 1 mM, fresh 50× stock in water), tris[(1-benzyl-1H-1,2,3-triazol-4-yl)methyl]amine (TBTA, Sigma-Aldrich, 100 μM, 16× stock in DMSO:tBuOH 1:4), and copper(II) sulfate (1 mM, 50× stock in water) to the lysate and incubated in the dark for one hour at r.t. SDS-PAGE reducing loading buffer (4×) was added and proteins were separated using a 10% SDS-PAGE gel. Gels were visualized using an Azure Biosystems Sapphire Biomolecular Imager, then stained using Coomassie. Images were quantified with ImageJ (V1.51).
MDA-MB-231 lysate (2 mg/mL, 25 μL) was treated with either 3 mM JW-RF-001 (1 μL of 25× stock in DMSO) or DMSO for one hour at r.t. Subsequently, lysate was incubated with 30 μM Example 4 (1 μL, of 25× stock in DMSO) for one hour at r.t. Click chemistry, reducing SDS-PAGE and visualization were performed as described above.

[2] = tested on: production of nitric oxide; details: reported; cited from earlier work
[3] = target: T1, PTP1B (Homo sapiens, UniProt P18031); details: reported by Hu et al., Eur. J. Org. Chem. 2016; cited from earlier work
T1 sequence (P18031 1-435): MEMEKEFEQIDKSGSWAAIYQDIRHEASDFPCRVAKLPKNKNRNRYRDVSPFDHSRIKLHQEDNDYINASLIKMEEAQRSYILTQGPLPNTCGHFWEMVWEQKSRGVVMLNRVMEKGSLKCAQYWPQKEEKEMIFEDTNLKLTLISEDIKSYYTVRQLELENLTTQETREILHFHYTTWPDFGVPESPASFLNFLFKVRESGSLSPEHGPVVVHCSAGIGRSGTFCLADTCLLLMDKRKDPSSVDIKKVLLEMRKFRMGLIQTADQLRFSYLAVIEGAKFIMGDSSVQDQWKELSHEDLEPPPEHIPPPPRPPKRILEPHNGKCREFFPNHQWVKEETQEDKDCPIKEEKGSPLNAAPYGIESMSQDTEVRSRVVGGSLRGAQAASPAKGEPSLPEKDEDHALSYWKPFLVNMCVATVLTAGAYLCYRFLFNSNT

[4] = target: T2, SHP2 (Homo sapiens, UniProt Q06124); assay: PTP inhibition study with pNPP as substrate; assay type: biochemical; details: pH 7, 25° C.; for IC50: 15 min
T2 sequence (Q06124 1-593): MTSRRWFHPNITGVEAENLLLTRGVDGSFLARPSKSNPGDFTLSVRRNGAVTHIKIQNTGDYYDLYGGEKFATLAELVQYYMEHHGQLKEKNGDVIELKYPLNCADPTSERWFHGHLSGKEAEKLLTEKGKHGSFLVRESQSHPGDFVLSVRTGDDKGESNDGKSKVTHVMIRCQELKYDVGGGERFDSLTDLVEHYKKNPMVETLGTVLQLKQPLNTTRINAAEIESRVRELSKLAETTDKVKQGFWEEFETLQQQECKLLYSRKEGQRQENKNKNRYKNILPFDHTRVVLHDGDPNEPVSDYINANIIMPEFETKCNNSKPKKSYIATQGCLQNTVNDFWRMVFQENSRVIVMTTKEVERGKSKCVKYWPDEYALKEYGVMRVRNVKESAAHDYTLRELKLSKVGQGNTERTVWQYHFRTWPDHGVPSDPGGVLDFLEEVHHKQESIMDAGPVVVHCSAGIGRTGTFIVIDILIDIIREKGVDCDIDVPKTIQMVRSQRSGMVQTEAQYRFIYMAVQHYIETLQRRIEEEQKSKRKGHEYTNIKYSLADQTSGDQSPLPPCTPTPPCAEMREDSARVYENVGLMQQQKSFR
Method: PTP Inhibition Study. Abies sesquiterpenoids and their analogs were evaluated for their ability to inhibit the reaction catalyzed by PTP1B and SHP2 using p-nitrophenyl phosphatae (pNPP) as a substrate at pH 7 and 25° C. […] The reaction was quenched after 3 (PTP1B) or 15 (SHP2) min by the addition of 25 μl of 5N NaOH. The absorbance at 405 nm was detected by a Spectra MAX 384 PLUS microplate spectrophotometer (Molecular Devices). IC50 values were calculated by fitting the absorbance at 405 nm versus inhibitor concentration to the following equation: A1/A0=IC50/(IC50+[I]) wherein A1 is the absorbance at 405 nm of the sample in the presence of inhibitor; A0 is the absorbance at 405 nm in the absence of inhibitor; and [I] is the concentration of the inhibitor.

[5] = target: T3, POLE3 (Homo sapiens, UniProt Q9NRF9); assay: Global proteomics profiling versus POLE3 knockdown; assay type: cell-based; details: HeLa cells
T3 construct: endogenous in cells; host or cells: HeLa
T3 sequence (Q9NRF9 1-147): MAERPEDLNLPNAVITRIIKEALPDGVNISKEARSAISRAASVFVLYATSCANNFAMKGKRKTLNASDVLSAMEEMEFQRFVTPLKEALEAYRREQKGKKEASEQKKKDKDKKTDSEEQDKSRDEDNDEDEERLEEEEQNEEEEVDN
From the text: To understand whether binding of Example 2 to C51 of POLE3 is productive and leads to the loss of function of this protein, POLE3 was knocked down in HeLa cells using siRNA and compared by global proteomics the protein expression profile in these cells versus cells treated with compound Example 2 or DMSO as control. […] Possibly as a compensatory effect, we also observed fourfold upregulation of POLE, another subunit of DNA polymerase ε.
Knockdown of POLE3 was achieved using RNAiMAx (Invitrogen) and POLE3 siRNA (Dharmacon) via reverse transfection according to the manual of the manufacturer. Briefly, 9 μL of 20 μM siRNA was mixed with 9 μL of RNAiMax reagent in 500 μL OptiMEM and incubated for 20 min. at r.t. […] Samples were analyzed by LC-MS/MS (see below) and the MS data was processed with MaxQuant (see below).
Peptides were resuspended in water with 0.1% formic acid (FA) and analyzed using EASY-nLC 1200 nano-UHPLC coupled to Q Exactive HF-X Quadrupole-Orbitrap mass spectrometer (Thermo Scientific). […]
The MS data was analyzed with MaxQuant (V1.6.1.0) and searched against the human proteome (Uniprot) and a common list of contaminants (included in MaxQuant). […] The minimum peptide length was set to 6 amino acids and peptide re-quantification, label-free quantification (MaxLFQ) and “match between runs” were enabled. […]

[6] = target: T4, POLE3-GFP (Homo sapiens, UniProt Q9NRF9); assay: Gel-based determination of kinetic parameters Ki and kinact (Kitz and Wilson method); assay type: binding; details: lysate of 293T cells overexpressing WT POLE3-GFP, 37° C., competition with 30 μM Example 4
T4 construct: expressed in transfected cells; host or cells: 293T
T4 sequence (Q9NRF9 1-147): T3 sequence (Q9NRF9 1-147)
Method: 293T cells in a 3.5 cm Petri dish were transfected with POLE3-WT-GFP-pEXP or […] using PEI-MAX. After 24 hours, lysates were prepared as described above. Proteins (1 mg/mL, 25 μL) were incubated with indicated compounds at indicated concentrations (25× stock in DMSO) for three hours at 37° C. Subsequently, 30 μM Example 4 (25× stock in DMSO) was added for one hour at r.t. Click chemistry, reducing SDS-PAGE and visualization were performed as described above. Proteins were transferred to a PVDF membrane using a Trans-Blot Turbo transfer system (Bio-Rad). Membrane was blocked with 3% BSA in Tris-Buffered Saline with 0.1% Tween 20 (TBST) for one hour at r.t. Mouse monoclonal antibody against GFP (Roche, 1/1000 in 3% BSA in TBST) was added and incubated overnight at 4° C. Membrane was washed three times for five min. with TBST and incubated with anti-mouse Alexa Fluor 647 (Jackson ImmunoResearch Inc., 1/500 in 3% BSA in TBST) for one hour at r.t. Membrane was washed four times for five min. with TBST and visualized with an Azure Biosystems Sapphire Biomolecular Imager.
WT POLES-GFP was overexpressed in 293T cells as described above and lysate was treated with indicated concentrations of Example 2 (1 μL of 25× stock in DMSO) for 1.5, 2, 2.5, 3, 3.5 or 4 hours at 37° C. […] Images were quantified using ImageJ and the kinetic parameters were determined using GraphPad Prism (V7.02).).

[7] = tested on: HeLa cells; assay: Visualization of DNA double strand breaks by γH2AX staining (confocal microscopy); assay type: cell-based
Method: HeLa cells were seeded (250′000 cells/mL) in a 6-well plate and reverse transfected with scrambled siRNA or POLE3 siRNA using RNAiMAX for two days. Cells were trypsinizned, seeded (150′000 cells/mL) in a 24-well plate containing a coverslip and left overnight to attach and grow. […] Cells were washed one time with PBS and fixed with methanol at −20° C. for 10 min. Cells were washed again two times with PBS and coverslip was transferred to a wet box.
Blocking was performed with a 5% bovine serum albumin (BSA) solution in PBS for 30 min. Cells were washed one time with PBS 0.1% BSA and rabbit antibody directed against H2AX pSer^139 (Sigma Aldrich H5912, 1/250 in PBS 0.1% BSA) was added and incubated for one hour at r.t. Cells were washed three times with PBS 0.1% BSA and incubated for one hour with anti-rabbit IgG Alexa Fluor 488 (Jackson, 1/200 in PBS 0.1% BSA). Cells were washed three times with PBS 0.1% BSA, one time with PBS, one time with water and then mounted on a slide with ProLong Gold antifade mountant with DAPI (Life Technologies). Cells were visualized with an LSM 700 confocal microscope (Zeiss).
Induced DNA damage was measured by confocal microscopy using γH2AX staining as marker.

C=C1C[C@@]2(C[C@H](C)[C@H]3CC=C(CN=[N+]=[N-])C(=O)[C@@H]3O2)OC1=O [Example 4, (2R,4S,4aR,8aR)-7-(azidomethyl)-4-methyl-4′-methylene-3,3′,4,4a,4′,8a-hexahydro-5′H-spiro[chromene-2,2′-furan]-5′,8(5H)-dione]
binding of the azide probe in lysate [1]: binded to cysteines

CC1=C[C@@]2(C[C@H](C)[C@H]3CC=C(C)[C@@H](O[C@@H]4O[C@H](CO)[C@@H](O)[C@H](O)[C@H]4O)[C@@H]3O2)OC1=O [Abiespiroside A, abiespiroside A]
inhibitory activity against the production of nitric oxide [2]: potent inhibitory activity

CC1=C[C@@]2(C[C@H](C)[C@H]3CC=C(CO)C(=O)[C@@H]3O2)OC1=O [beshanzuenone C]
IC50 [3]: 59.7 µM

C=C1CC2(CC(C)C3CC=C(CO)C(O)C3O2)OC1=O (stereo not shown) [Example 3′]
preference for SHP2 over PTP1B [4]: 10 fold | IC50 [4]: 3.3 ± 0.1 µM

C=C1C[C@@]2(C[C@H](C)[C@H]3CC=C(C)C(=O)[C@@H]3O2)OC1=O [Example 2, (2R,4S,4aR,8aR)-4,7-dimethyl-4′-methylene-3,3′,4,4a,4′,8a-hexahydro-5′H-spiro[chromene-2,2′-furan]-5′,8(5H)-dione]
functional effect of binding on POLE3 (overlap of protein expression profile with POLE3 KD cells) ([5]; 30 μM, 6 h treatment): leads to the loss of function of POLE3 | upregulation of POLE ([5]; POLE3 KD and Example 2-treated (30 μM, 6 h)): fourfold | preference for SHP2 over PTP1B [4]: 10 fold | IC50 [4]: 44.9 ± 9.6 µM | kinact [6]: 0.0045 s⁻¹ | Ki ([6]; read-out: POLE3-GFP binding constant Ki): 56.9 µM | γH2AX signal, combination with etoposide versus etoposide only-treated cells ([7]; 30 μM etoposide combined with 30 μM Example 2, 6 hours): significantly stronger γH2AX signal | γH2AX signal intensity, compound alone ([7]; 30 μM, 6 hours): did not lead to an increase

C=C1C[C@@]2(C[C@H](C)[C@H]3CC=C(CO)C(=O)[C@@H]3O2)OC1=O [Example 3, (2R,4S,4aR,8aR)-7-(hydroxymethyl)-4-methyl-4′-methylene-3,3′,4,4a,4′,8a-hexahydro-5′H-spiro[chromene-2,2′-furan]-5′,8(5H)-dione]
preference for SHP2 over PTP1B [4]: 10 fold | IC50 [4]: 33.3 ± 0.9 µM

CC1=C[C@@]2(C[C@H](C)[C@H]3CC=C(C)C(=O)[C@@H]3O2)OC1=O [beshanzuenone D]
IC50 [3]: 40.4 µM
